Series [1] has as its target T1, Serine protease 1 (Bos taurus, UniProt P00760).
T1 sequence (P00760 whole entry): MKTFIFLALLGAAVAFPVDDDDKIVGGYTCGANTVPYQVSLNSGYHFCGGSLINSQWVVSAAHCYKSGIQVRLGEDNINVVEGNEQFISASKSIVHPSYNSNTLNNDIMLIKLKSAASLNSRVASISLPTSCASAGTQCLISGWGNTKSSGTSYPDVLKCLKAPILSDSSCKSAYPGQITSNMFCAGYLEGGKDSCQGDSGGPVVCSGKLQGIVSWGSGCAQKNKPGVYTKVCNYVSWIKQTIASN
The experiment in a line: Binding affinity towards bovine trypsin was evaluated in vitro.

Series [2] concerns the target Prothrombin (Homo sapiens, UniProt P00734). The experiment in a line: Binding affinity towards human thrombin.
Series [3] relates to Rattus norvegicus. The experiment in a line: In vivo antithrombotic activity was tested in rat thromboplastin-induced model of venous thrombosis at an intravenous bolus of 5 mg/Kg. The format is functional.
Series [4] can be described thus: Maximum concentration in rat plasma at 30 mg/Kg upon oral administration. The format is ADME, organism-based. More on the design: dose 30 mg/Kg, route oral.
Series [5] is described as follows: Time taken by the compound to achieve maximum concentration in rat plasma at 30 mg/Kg upon oral administration. The format is ADME, organism-based.
The nature of series [6]: Apparent permeability coefficient (Papp) was determined in human Caco-2 cell monolayer (n = 3). It counts as ADME, cell-based. (Caco-2 monolayers are a common model of the intestinal barrier.)

The Ki is the dissociation constant of the complex between target and ligand, obtained from inhibition or displacement. Higher therefore signals a looser hold on the target. The term inhibition in vivo denotes the relative decrease from the control value, in per cent. Low values mean little suppression, high ones strong suppression. For the molecule `CN(C(=O)[C@H](Cc1ccc(CN)cc1)NS(=O)(=O)c1ccc2ccccc2c1)C1CCCC1`, the Ki in series [1] stood at 13600 nM; in series [2], 18.3 nM. Besides, the inhibition in vivo at 5 mg/kg in series [3] was 17.6%.

`NCc1ccc(C[C@H](NS(=O)(=O)c2ccc3ccccc3c2)C(=O)N2CCCCC2)cc1` yielded an inhibition constant (Ki) in series [2] of 3.1 nM.

As for `CN(C(=O)[C@H](Cc1ccc(CN)cc1)NS(=O)(=O)c1ccc2cc3ccccc3cc2c1)C1CCCC1`, the inhibition constant Ki in series [1] worked out at 3300 nM; in series [2] it was 5.7 nM. Also, the inhibition in vivo at 5 mg/kg in series [3] was determined as 45.4%.

In the case of `CN(C(=O)[C@H](Cc1ccc(CN)cc1)NS(=O)(=O)c1ccc(C2CCCCC2)cc1)C1CCCC1`, the Ki turned out to be 4800 nM in series [1] and 20.1 nM in series [2]. In series [3], this molecule showed an inhibition in vivo at 5 mg/kg of 23.8%.

For orientation: Cmax means the maximum level reached in the sampled fluid or tissue. Usually Tmax stands for the time from dosing to the highest level. On to `CN(C(=O)[C@H](Cc1ccc(CN)cc1)NS(=O)(=O)c1ccc2c(c1)CCCCC2)C1CCCC1`, for which the inhibition constant Ki was found to be 6300 nM in series [1] and 3.3 nM in series [2]. This molecule returned a Cmax in series [4] of 3.5 µM. The Tmax in series [5] was 1.33 h. Further, the inhibition in vivo at 5 mg/kg in series [3] is 39.4%.

As for `CN(C(=O)[C@H](Cc1ccc(CN)cc1)NS(=O)(=O)c1ccc(-c2ccccn2)s1)C1CCCC1`, the Ki in series [2] turned out to be 107 nM.

In the case of `CN(C(=O)[C@H](Cc1ccc(CN)cc1)NS(=O)(=O)c1ccc2c(c1)CCCC2)C1CCCC1`, the Ki was 9800 nM in series [1] and 10.1 nM in series [2]. Besides, testing at 5 mg/kg in series [3] gave an inhibition in vivo of 16.4%.

As for `CN(C)c1cccc2c(S(=O)(=O)N[C@@H](Cc3ccc(CN)cc3)C(=O)N(C)C3CCCC3)cccc12`, the inhibitory constant (Ki) in series [1] was determined as 17100 nM; in series [2], 10.9 nM. For the same molecule, the Cmax in series [4] came out at 3.3 µM. Besides, in series [5], the time of peak concentration (Tmax) is 1.6 h. This molecule also returned an inhibition in vivo at 5 mg/kg in series [3] of 35.5%.

For orientation: Papp means a coefficient for how fast a substance crosses the barrier. On to `COc1ccc2cc(S(=O)(=O)N[C@@H](Cc3ccc(CN)cc3)C(=O)N(C)C3CCCC3)ccc2c1`, for which the inhibitory constant (Ki) in series [1] was determined as 14200 nM; in series [2], 6.6 nM. Besides, the highest level in series [4] (Cmax) was 2.8 µM. In addition, in series [6], the apparent permeability coefficient (Papp) worked out at 10.7 ×10⁻⁶ cm/s. Besides, the time of peak concentration (Tmax) in series [5] is 2.33 h. Moreover, the inhibition in vivo at 5 mg/kg in series [3] was 44.1%.

As to `CN(C(=O)[C@H](Cc1ccc(C(=N)N)cc1)NS(=O)(=O)c1ccc2ccccc2c1)C1CCCC1`, the Papp in series [6] stood at 0.2 ×10⁻⁶ cm/s.

Regarding `CN(C(=O)[C@H](Cc1ccc(C(=N)NN)cc1)NS(=O)(=O)c1ccc2ccccc2c1)C1CCCC1`, the Papp in series [6] came out at 1.7 ×10⁻⁶ cm/s.

Turning to `CCCc1ccc(S(=O)(=O)N[C@@H](Cc2ccc(CN)cc2)C(=O)N(C)C2CCCC2)cc1`, the values for the inhibition constant (Ki) in series [1] and in series [2] were 9040 nM and 9.6 nM, respectively.

Regarding `CN(C(=O)[C@H](Cc1ccc(CN)cc1)NS(=O)(=O)c1ccc(-c2ccccc2)cc1)C1CCCC1`, affinity in series [2] was put at a Ki of 60.5 nM.
